Source: US11655994B2, “Antimicrobial composition including an acyl lactylate and a glycol and methods of inhibiting microbial growth utilizing the same” (Kimberly-Clark Worldwide, Inc., priority 2017, dated 2023)

Assay: Brookfield viscosity of acyl lactylates alone and 1:1 with glycols
Type: physicochemical
Conditions: Brookfield 95, 5 RPM, 25° C.; acyl lactylate alone
Source text: An advantage of compositions including an acyl lactylate and a glycol is the reduction of viscosity that is present in acyl lactylates, which is rather high and increases difficulty in processing. […] Of course, it is expected that a lowering of viscosity of the acyl lactylates would be realized in ratios of acyl lactylates:glycols other than 1:1 as well.

Compound	Viscosity
CCCCCCCCCCCC(=O)OC(C)C(=O)OC(C)C(=O)[O-].[Na+] (stereo not drawn) [Sodium Lauroyl Lactylate]	1,520,000 cP
Sodium Caproyl/Lauroyl Lactylate	1,192,000 cP
Sodium Isostearoyl Lactylate	1,080,000 cP
